Test results: PMC9354638, “Targeting p21-activated kinase 4 (PAK4) with pyrazolo[3,4-d]pyrimidine derivative SPA7012 attenuates hepatic ischaemia-reperfusion injury in mice” (Journal of Enzyme Inhibition and Medicinal Chemistry, 2022)

Key:
[1] = test system: primary hepatocytes; test: MTT assay for cell viability; format: cell-based, mouse; conditions: SPA7012 at a concentration of less than 1 μM
Experimental: (§1) Primary hepatocytes were prepared from 8 to 10 week old C57BL/6 male mice by perfusion. […] Hepatocytes were resuspended in DMEM/F12 supplemented with 10% FBS, 10 units/mL penicillin, 10 μg/mL streptomycin, and 10 nM dexamethasone mixed with 42% Percoll, and then centrifuged for 5 min at 1,300 rpm. The cells were plated at 1 × 10^6 cells/well in 6-well culture dishes.
Cell viability was determined by analysing the reduction of 3–(4, 5-dimethylthiazol-2-yl)-2, 5-diphenyltetrazolium bromide (MTT) to formazan.

[2] = test system: primary hepatocytes; test: Hypoxia-reoxygenation (H/R) injury in primary hepatocytes; format: cell-based, mouse
Experimental: as §1
Primary hepatocytes were incubated at 37 °C in anaerobic jars (Oxoid, Basingstoke, Hampshire, UK) with oxygen-absorbing packs (AnaeroGen, Oxoid). […] Following various periods of hypoxia, reoxygenation of cells was initiated by opening the chamber and replacing the hypoxic medium with an oxygenated medium.
H/R-induced apoptosis was monitored using the Annexin V-propidium iodide (PI) double-staining kit (BD Biosciences, San Jose, CA, USA) according to the instructions of the manufacturer, allowing quantification by flow cytometry (BD Biosciences). The proportion of apoptotic cells was defined as the percentage of Annexin V-positive cells […].
Intracellular ROS levels were measured using 2′,7′-dichlorofluorescein diacetate (DCF-DA), which converts to fluorescent […] in cells when exposed to ROS. Briefly, after H/R injury, hepatocytes were loaded with 20 μM DCF-DA (Invitrogen) for 10 min at 37 °C. The DCF fluorescence intensity was measured by fluorescence spectrophotometry with 485 nm excitation and 538 nm emission and expressed as a percentage relative to control.
Alanine aminotransferase (ALT) and aspartate aminotransferase (AST) in serum (Asan Pharm, Seoul, Korea), glutathione (GSH, Arbour Assays, Ann Arbour, MI, USA), malondialdehyde (MDA, ab118970, Abcam, Cambridge, UK) in liver tissues, and lactate dehydrogenase (LDH, Biovision, Milpitas, CA, USA) in culture medium were analysed using specific kits. Serum levels of IL-1β, IL-6, TNF-α, and CCL-2 were detected using ELISA kits (all from Invitrogen).
Total RNA was extracted from frozen liver tissues or primary hepatocytes using TRIzol reagent (Invitrogen). RNA was treated with isopropanol, dried using 70% ethanol, and dissolved in diethyl pyrocarbonate-treated distilled water. First-strand cDNA was generated using the random hexamer primer provided in the first-strand cDNA synthesis kit (Applied Biosystems, Foster City, CA, USA). Specific primers were designed using PrimerBank (https://pga.mgh.harvard.edu/primerbank, Table 1). qPCR reactions were performed in a final volume of 10μ L containing 10 ng reverse-transcribed total RNA, 200 nM forward and reverse primers, and PCR master mixture. qPCR was performed in 384-well plates using an ABI Prism™ 7900HT Sequence Detection System (Applied Biosystems).
Nuclear and cytoplasmic fractions were prepared using the NE-PER Nuclear and Cytoplasmic Extraction kit (Thermo Fisher Scientific, Waltham, MA, USA). Tissue homogenates or cell lysates (15 μg) were separated by 6–14% SDS-PAGE and transferred to PVDF membranes. After blocking with 5% skim milk, blots were probed with primary antibodies against: PAK4 (G222), p-PAK4 (S474), p-IKKβ (S176/180), p-IκBα (S32), p-p65 (S536), cleaved caspase-3 (Asp175), Bax (Cell Signalling Technology, Beverly, MA, USA), GAPDH (A531), lamin B1(L75), Bcl2(P65), NQO1 (F252) (Bioworld Technology, St Louis Park, MN, USA), NF-κB p65 (C-20), IKBα (H-4), IKKβ (10A9B6) (Santa Cruz Biotechnology, Dallas, TX, USA), Nrf2 (Proteintech, Rosemont, IL, USA), HO-1 (Enzo Life Sciences, Farmingdale, New York, USA), and p-Thr (Merck KGaA, Darmstadt, Germany). For co-immunoprecipitations, 600 μg protein was incubated with anti-Nrf2 antibodies (Proteintech, Sankt Leon-Rot, Germany) overnight at 4 °C followed by protein G agarose for 2 h at 4 °C. Blots were probed with antibodies against PAK4, Nrf2, or p-Thr. Immunoreactive bands were detected with a Las-4000 imager (GE Healthcare Life Science, Pittsburgh, PA, USA).

[3] = target: T1, PAK3 (Homo sapiens, UniProt O75914); test: HotSpot kinase assay, PAK subtype selectivity; format: biochemical; conditions: relative percentage inhibition at 20 μM with staurosporine
T1 construct: purchased Reaction Biology Corporation (Malvern, PA, USA)
T1 sequence (O75914 whole entry): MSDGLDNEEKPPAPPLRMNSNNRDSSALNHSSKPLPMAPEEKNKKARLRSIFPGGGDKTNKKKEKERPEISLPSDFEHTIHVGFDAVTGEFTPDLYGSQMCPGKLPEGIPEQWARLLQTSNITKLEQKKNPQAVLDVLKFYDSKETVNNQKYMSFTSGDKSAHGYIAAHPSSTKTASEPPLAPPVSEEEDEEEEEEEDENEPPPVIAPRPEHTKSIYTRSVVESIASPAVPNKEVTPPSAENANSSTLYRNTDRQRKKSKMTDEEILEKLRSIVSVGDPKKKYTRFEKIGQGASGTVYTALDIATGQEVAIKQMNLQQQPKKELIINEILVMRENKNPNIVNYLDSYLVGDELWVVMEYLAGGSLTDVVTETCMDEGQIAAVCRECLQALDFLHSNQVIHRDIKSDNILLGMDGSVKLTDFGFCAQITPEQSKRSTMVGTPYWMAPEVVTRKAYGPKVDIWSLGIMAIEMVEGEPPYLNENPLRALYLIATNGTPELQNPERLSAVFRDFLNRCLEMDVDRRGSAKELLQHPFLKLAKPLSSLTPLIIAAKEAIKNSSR
Experimental: (§2) To examine the enzyme activity, HotSpot kinase assay was performed at Reaction Biology Corporation (Malvern, PA, USA). The kinase and substrate pairs were prepared in reaction buffer: 20 mM HEPES at pH 7.5, 10 mM MgCl2, 1 mM EGTA, 0.02% Brij 35, 0.02 mg/mL BSA, 0.1 mM Na3VO4, 2 mM DTT, and 1% DMSO. Compounds were added into the kinase reaction mixture and incubated for 20 min. Then, ^32 P-ATP was introduced to the mixture to initiate the reaction carried out at 10 μM of ATP concentration. After 2 h at room temperature, the mixture was spotted onto P81 ion exchange paper and kinase activity was then evaluated utilising the filter-binding method. Compounds were tested for single dose enzyme inhibition at a concentration of 20 μM. For the control compound, staurosporine was tested in a 10-dose IC50 mode. To determine the IC50 value, the compounds were tested for 10-doses with 3-fold serial dilution starting at 100 μM.
(§3) Synthesised compounds were evaluated for their in vitro PAK4 enzyme inhibitory activities. In vitro kinase assays were performed using HotSpot kinase assays for relative enzyme inhibitory activity at a single concentration (20 μM) and IC50 assessment at an ATP concentration of 10 μM (Figure 1(B)). […] For the allosteric pocket binder, cyclohexyl group (SPA7012) was preferable to the smaller dimethyl (SPA7011) or hydroxymethyl group (SPA7013), and the aromatic ring (SPA7014) reduced activity compared to the saturated ring (SPA7012). In vitro enzyme IC50 values appeared in the order of SPA7012, SPA7017, and SPA7016. […] Molecular docking analysis was performed on the human PAK4 catalytic domain structure complexed with GNE-2861 (PDB code: 4O0V). The binding pose of SPA7012 overlapped well with the crystal structure of GNE-2861, with the allosteric binder properly positioned in the specific back pocket. The oxygen atom in the tertiary alcohol of the hydrophobic allosteric binder formed hydrogen bonds with the backbone of Phe459 and the side chain of Glu366 (Figure 1(D)). The amine group and nitrogen atom in the pyrazolo[3,4-d]pyrimidine core scaffold also formed hydrogen bonds with Lue398 at the hinge region. Finally, SPA7012 was decided as a lead compound for further examination with satisfactory potency and subtype selectivity.

[4] = target: T2, PAK1 (Homo sapiens, UniProt Q13153); test: HotSpot kinase assay, PAK subtype selectivity; format: biochemical; conditions: relative percentage inhibition at 20 μM with staurosporine
T2 construct: purchased Reaction Biology Corporation (Malvern, PA, USA)
T2 sequence (Q13153 whole entry): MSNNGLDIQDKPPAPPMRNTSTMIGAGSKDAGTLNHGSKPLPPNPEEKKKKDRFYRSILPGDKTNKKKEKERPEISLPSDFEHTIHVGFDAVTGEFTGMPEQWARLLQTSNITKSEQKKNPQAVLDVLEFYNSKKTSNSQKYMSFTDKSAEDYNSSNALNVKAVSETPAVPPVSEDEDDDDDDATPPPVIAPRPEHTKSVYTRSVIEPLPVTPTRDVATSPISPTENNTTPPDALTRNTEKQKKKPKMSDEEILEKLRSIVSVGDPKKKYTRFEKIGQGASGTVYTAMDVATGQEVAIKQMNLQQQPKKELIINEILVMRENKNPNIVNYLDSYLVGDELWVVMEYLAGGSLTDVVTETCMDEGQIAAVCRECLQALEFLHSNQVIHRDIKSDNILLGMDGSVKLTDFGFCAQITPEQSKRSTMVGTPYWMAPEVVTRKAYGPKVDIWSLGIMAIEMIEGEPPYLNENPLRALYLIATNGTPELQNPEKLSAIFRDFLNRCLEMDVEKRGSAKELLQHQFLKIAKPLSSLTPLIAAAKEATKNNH
Experimental: as §2, §3

For `Cc1nn(-c2cccc(C#CC3(O)CCCCC3)c2)c2ncnc(N)c12` [Compound 14b, 3-(4-Amino-3-methylpyrazolo[3,4-d]pyrimidin-1-yl)phenylethynylcyclohexan-1-ol], the “Effect on cell viability (MTT)” value [1] was “little effect”, the “H/R-induced oxidative stress (DCF fluorescence, MDA, GSH)” value ([2]; 1 μM) was “decrease” and the “Cell damage (LDH release) after H/R” value ([2]; 1 μM before reoxygenation, 12 h reoxygenation, vs only H/R) was “markedly decreased”. The “H/R-induced apoptotic cell death” value ([2]; 1 μM, Annexin-V staining and Western blotting) was “decrease”, the “Phosphorylation levels of IKKβ and p65 in primary hepatocytes” value ([2]; 1 μM, H/R, vs control group) was “decreased” and the “Protein levels of IκBα in primary hepatocytes” value ([2]; 1 μM, H/R, vs control group) was “increased”. For the same molecule, the H/R-induced cytokine release ([2]; 1 μM, culture media protein and hepatocyte mRNA) was “decrease”, the “PAK3 % inhibitory activity” value [3] was 5% and the “PAK1 % inhibitory activity” value [4] was 16%.
